From PubChem BioAssay (NCI)
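Step 1: Grow cells in 96-well plates. Step 2: Expose to compound for 48 hours at 5 concentrations. Step 3: Interpolate endpoints linearly; if unreached, use highest concentration. The concentration for full growth arrest is given as TGI.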 Where a SMILES comes first, the peptide text is derived from it. [ ]: non-standard residue; d: D form. The star is where a group is joined. ξ: configuration not given here. NMeF = CN[C@@H](Cc1ccccc1)C(=O)O; ξNMeV = CNC(C(=O)O)C(C)C; Boc = CC(C)(C)OC(=O)*; OBn = c1ccc(CO*)cc1

Assays:
Assay in all cases: NCI-60 cell line screen, 48 h
HT29 colon = test system: HT29 colon
SNB-78 CNS = test system: SNB-78 CNS
DMS 114 small cell lung = test system: DMS 114 small cell lung
SNB-75 CNS = test system: SNB-75 CNS
HCT-15 colon = test system: HCT-15 colon
EKVX NSCLC = test system: EKVX NSCLC
SK-OV-3 ovarian = test system: SK-OV-3 ovarian
CCRF-CEM leukemia = test system: CCRF-CEM leukemia
A498 renal = test system: A498 renal
SF-539 CNS = test system: SF-539 CNS
KM12 colon = test system: KM12 colon
COLO 205 colon = test system: COLO 205 colon
SR leukemia = test system: SR leukemia
OVCAR-4 ovarian = test system: OVCAR-4 ovarian
TK-10 renal = test system: TK-10 renal
HOP-92 NSCLC = test system: HOP-92 NSCLC
RXF 393 renal = test system: RXF 393 renal
NCI-H226 lung = test system: NCI-H226 lung
IGROV1 ovarian = test system: IGROV1 ovarian
NCI-H23 lung = test system: NCI-H23 lung
U251 CNS = test system: U251 CNS
M19-MEL melanoma = test system: M19-MEL melanoma
KM20L2 colon = test system: KM20L2 colon
M14 melanoma = test system: M14 melanoma
HOP-62 NSCLC = test system: HOP-62 NSCLC
DMS 273 small cell lung = test system: DMS 273 small cell lung
UACC-62 melanoma = test system: UACC-62 melanoma
OVCAR-3 ovarian = test system: OVCAR-3 ovarian
NCI-H522 lung = test system: NCI-H522 lung
DLD-1 colon = test system: DLD-1 colon
SN12C renal = test system: SN12C renal
LXFL 529 NSCLC = test system: LXFL 529 NSCLC
SW-620 colon = test system: SW-620 colon
HCC-2998 colon = test system: HCC-2998 colon
UO-31 renal = test system: UO-31 renal
MALME-3M melanoma = test system: MALME-3M melanoma
UACC-257 melanoma = test system: UACC-257 melanoma
HCT-116 colon = test system: HCT-116 colon
NCI-H460 lung = test system: NCI-H460 lung
SK-MEL-2 melanoma = test system: SK-MEL-2 melanoma
SF-295 CNS = test system: SF-295 CNS
OVCAR-8 ovarian = test system: OVCAR-8 ovarian
A549 NSCLC = test system: A549 NSCLC
LOX IMVI melanoma = test system: LOX IMVI melanoma
786-0 renal = test system: 786-0 renal
XF 498 CNS = test system: XF 498 CNS
SF-268 CNS = test system: SF-268 CNS
MOLT-4 leukemia = test system: MOLT-4 leukemia
HL-60(TB) leukemia = test system: HL-60(TB) leukemia
SK-MEL-28 melanoma = test system: SK-MEL-28 melanoma
HOP-18 NSCLC = test system: HOP-18 NSCLC
ACHN renal = test system: ACHN renal
SNB-19 CNS = test system: SNB-19 CNS
RPMI-8226 leukemia = test system: RPMI-8226 leukemia
K-562 leukemia = test system: K-562 leukemia
SK-MEL-5 melanoma = test system: SK-MEL-5 melanoma
OVCAR-5 ovarian = test system: OVCAR-5 ovarian
RXF-631 renal = test system: RXF-631 renal
CAKI-1 renal = test system: CAKI-1 renal

Measured: TGI

CC12CC[C@H](O)C(C)(C)[C@H]1CC[C@](C)(O)C2COc1ccc2ccc(=O)oc2c1 (some centres not stated)
not listed: SK-MEL-5 melanoma | OVCAR-5 ovarian | RXF-631 renal | CAKI-1 renal
> 100 µM: all other assays above

CC(C)C(C(=O)N1CCC[C@@H]1C(=O)OCc1ccccc1)N(C)C(=O)C(C(C)C)N(C)C(=O)[C@H](Cc1ccccc1)N(C)C(=O)[C@H](NC(=O)OC(C)(C)C)C(C)C (some centres not stated) (Boc-[dV][NMeF][ξNMeV][ξNMeV][dP]-OBn)
not listed: RXF-631 renal | CAKI-1 renal
> 100 µM: all other assays above

COc1cccc(NC(=O)CC(=O)N2NC(C)C(N=Nc3cccc(C(=O)O)c3)C2=O)c1 (configuration not stated)
not listed: HCT-15 colon | RXF 393 renal | XF 498 CNS | HL-60(TB) leukemia
> 100 µM: all other assays above
